Experimental findings from patent US20180028477A1, “TREATMENT OF CARDIAC REMODELING AND OTHER HEART CONDITIONS” (C & C BIOPHARMA, LLC, priority 2013, published 2018) are described below.

Series [1] has as its system pressure overload produced by transverse aortic coarctation (TAC) in C57/B16 mice. It is filed as in vivo. As for the experimental part: […]. Mice were treated with daily injections of MEF2 inhibitor 8MI at the indicated concentrations for two weeks beginning immediately after transverse aortic banding. N=at least 3 per condition. Mice were subjected to either a sham operation (dark gray bars) or TAC (light gray bars). […] Ejection fraction, a measure of contractile function, was determined by echocardiography on a Vevo 770 ultrasound system prior to sacrifice at two weeks.
[…]. TAC has been used extensively to model the clinical hypertrophic stimuli of hypertension, aortic valve disease, and other types of pressure overload. In vivo pressure overload was created in wild type C57/B16 by creation of a surgical restriction in the transverse aorta between the origins of the right and left carotid arteries as previously described in Wei et. al. 2008. Control littermates were subjected to a sham operation. […] Trans-aortic gradients were determined by simultaneous measurements from the right and left carotid arteries using Statham pressure transducers (model P23XL, Viggo-Spectramed, Oxnard, Calif.) zeroed at the level of the right atrium. Pressures were continuously recorded as described in Wei et. al. 2008. […]
C57/B16 mice were treated with 8MI for two weeks and evaluated for cardiac function by echocardiography and for cardiac mass using a standard index of heart weight to tibia length (HW/TL) after sacrifice. […]

A further series concerns GATA4. Kind of series: GATA4 acetylation in myocardial lysates, immunoprecipitation/Western (Example 9). The note with it: TAC-operated mice, same conditions. It is filed as in vivo. As for the experimental part: (§1) Acetyl-MEF2 and acetyl-GATA4 were determined as described in Example 9 in myocardial lysates of TAC- or sham-operated mice treated with the indicated doses of 8MI, or its vehicle (0), as indicated. […] MEF2 acetylation is increased by TAC and reduced by 8MI. Myocardial lysates were immunoprecipitated with either anti-pan MEF2 or GATA4 antibodies, and probed with antibodies against MEF2, GATA4 or acetyl-lysine (control). The quantified data shown in FIG. 9 is from 3 mice per group and normalized to total acetyl-lysine (western blots are not shown).
(§2) MEF2 acetylation was determined in myocardial tissue from sham- and TAC-operated mice in the presence of vehicle or 8MI, under the experimental conditions described in Example 4. Protein samples were collected in RIPA (Sigma). […] of protein samples were incubated with 5 μg of acetyl lysine or GATA4 antibodies (Upstate, Charlottesville, Va.) or MEF2 antibody (Santa Cruz Biotechnology, Santa Cruz, Calif.) (5 μg). The immune-complexes were captured using TrueBlot sepharose beads and subjected to Western analysis. The immune complexes were resolved on SDS-PAGE and transferred to nitrocellulose membranes. Membranes were blocked with 5% milk in 0.5% TBS-T for 1 hour at room temperature followed by incubation in primary antibody at appropriate dilutions overnight. […]

Series [2] relates to Neonatal Rat Ventricular Myocytes (NRVMs). The series can be described thus: Serum (FBS)-induced hypertrophy of Neonatal Rat Ventricular Myocytes in vitro. It is filed as cell-based. As for the experimental part: The cells were also treated with DMSO (light gray bars) or a vehicle (dark gray bars) as a negative control. The order of potency for inhibitors was DMSO<7MI<TSA<8MI. Viability was unchanged (not shown).
Next, the ability of 7MI and 8MI to inhibit hypertrophy in vitro was tested (FIG. 2A). […] However, fetal calf serum, which contained a rich variety of growth factors, was chosen as the most robust and multifactorial stimulus for cardiomyocyte growth available, reasoning that a similarly robust and powerful inhibitor would be required to block this hypertrophy.

Series [3] relates to cardiac structural and hypertrophy-associated genes (Col1, Col3, ANP, BNP, SERCA2, alpha- and beta-MHC). Kind of series: Quantitative realtime PCR of cardiac structural and hypertrophy-associated genes in left ventricular tissue after TAC (Example 7). In kind it is in vivo, mice. The note with it: mRNA, 21 days after TAC. Here is the method:
In parallel samples from the experiment described in Example 4, the expression of a group of cardiac structural and hypertrophy-associated genes were quantified. Total RNA was extracted from left ventricular tissue using TRIzol Reagent (Invitrogen, Carlsbad, Calif.). cDNA was amplified using TaqMan Universal PCR master mix reagent (Applied Biosystems, Foster City, Calif.) under the following conditions: 2 min at 50° C., 10 min at 95° C., 40 cycles: 15 s at 95° C. and 1 min at 60° C. in an ABI 7900HT thermocycler. mRNA expression levels were normalized to those of the internal reference 18S rRNA. All samples were run in duplicates. The following primer sets were used: ANP, BNP, SERCA, MHC, and 18S. Data was analyzed using software RQ manager 1.2 from Applied Biosystems.

For series [4], the system named is ventricular fibrosis after TAC in mice. The series can be described thus: TAC 21 days: ventricular fibrosis, Masson's Trichrome (Example 5). It is filed as in vivo. The note with it: 21 days after TAC. From the text: Using cardiac tissue samples obtained from the same mice treated under the experimental conditions described in Example 4, Masson's Trichrome was used to stain fibrotic tissue (FIG. 6A). Fibrotic area was quantified and expressed relative to the total tissue area (FIG. 6B). Ventricular fibrosis was prominent in mice 21 days after TAC, but not in sham-operated mice (FIGS. 6A and 6B).

The test system of a further series is a variety of cells. Kind of series: Toxicity in the culture of a variety of cells. In kind it is cell-based.
The test system of the next series is MEF2. Kind of series: MEF2 acetylation in myocardial lysates, immunoprecipitation/Western (Example 9). In kind it is in vivo, mice. As for the experimental part:
as §1, §2

Series [5] relates to myocyte apoptosis during TAC. The series can be described thus: Myocyte apoptosis in myocardial tissue after TAC, TUNEL assay (Example 10). In kind it is in vivo, mice. From the text: In parallel samples from the experiment described in Example 4, apoptosis was quantitated in myocardial tissue from sham- and TAC-operated mice in the presence of vehicle or 8MI. Apoptosis was detected following recommended protocol for the commercially available terminal deoxynucleotidyl transferase-mediated dUTP nick-end labeling (TUNEL) assay kit (Cardiotacs, Trevigne, Gaithersburg, Md.).

Entries after “also recorded” stand apart in the source; their conditions may differ.

`Nc1ccccc1NC(=O)CCCCCC(=O)Nc1cccc(Br)c1` [8MI]: in series [1] (mouse, in vivo), the mortality result was “no mortality”. In addition, the “TAC-induced reduction of Left Ventricular Ejection Fraction (LVEF)” value in series [1] (two weeks after TAC, 5, 20 and 40 μg/g 8MI daily) is “largely prevented this impairment of function”. Further, in the series on GATA4, the “total and Ac-GATA4 levels” value is “no significant change”. In addition, the viability entry in series [2] (NRVMs (not shown)) is recorded as “unchanged”. Also, the “order of potency for inhibitors” value in series [2] (NRVMs, FBS-induced growth) is given as “most potent inhibitor; also recorded: DMSO<7MI<TSA<8MI”. Moreover, the “growth response to Fetal Bovine Serum / serum-stimulated myocyte growth (hypertrophy)” value in series [2] (NRVMs, pre-treatment with a range of doses) was “sufficient to block myocyte hypertrophy; also recorded: depressed growth response”. Moreover, in series [3], the “stress-induced expression of B-type natriuretic peptide (BNP)” value was “markedly attenuated”, the “stress-induced expression of Collagen Type 1 (Col1)” value is reported as “markedly attenuated”, the “stress-induced expression of Collagen Type 3 (Col3)” value was “markedly attenuated” and the “stress-induced expression of SERCA2” value is reported as “markedly attenuated”. In addition, in series [3], the “stress-induced expression of alpha-myosin heavy chain” value is listed as “markedly attenuated”, the “stress-induced expression of atrial natriuretic peptide (ANP)” value is given as “markedly attenuated” and the “stress-induced expression of beta-myosin heavy chain” value is “markedly attenuated”. For the same molecule, the “fibrotic response (fibrotic area relative to total tissue area)” value in series [4] (dose range) is listed as “significantly reduced in a dose-dependent manner; also recorded: reduces fibrosis”. Besides, in series [4] (highest dosage), the “fibrotic response (fibrotic area relative to total tissue area) at the highest dosage” value is on record as “eliminated”. Also, the “concentration up to which no apparent toxicity was seen” value in the series with a variety of cells is “up to 20 μM”. The “TAC-induced acetyl-MEF2 content” value in the series with MEF2 (TAC-operated mice, increasing doses of 8MI) was “reduced the acetyl-MEF2 content to level at or below those of the sham-operated mice; also recorded: reduced”. In addition, the “total acetyl-MEF2 content, basal” value in the series on MEF2 (sham-operated mice, maximum dose (40 mg/kg) versus vehicle (DMSO), 40 mg/kg) was “not different; also recorded: does not reduce acetyl-MEF2 levels”. In series [5] (40 mg/kg), the “apoptosis in TAC-operated mice at the highest dose” value is recorded as “reduced to approximately the same level of apoptosis observed for the sham-operated mice”. In series [5] (dose range), the “apoptosis in TAC-operated mice” value is reported as “reduced in TAC-operated mice by 8MI in a dose-dependent manner; also recorded: prevented myocyte apoptosis during TAC in a dose dependent manner”.
